Test results from PubChem BioAssay (NCI).
Where “and” joins values, the source holds several entries; their conditions need not be identical. Equal entries are not always repeated.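 The compound was tested at five concentrations on cells cultured in 96-well plates, with a 48-hour exposure period. The concentration for 50% growth inhibition is given as GI50. TGI marks complete inhibition of growth.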

Tested on: CAKI-1 renal
Experiment: NCI tumour cell line growth inhibition, 48 h

Structure (SMILES) | GI50 | TGI
COc1cc(OC)c(C(=O)/C=C/c2cccc(C(F)(F)F)c2)c(OC)c1 | 2.17 µM | 7.22 µM
C/C(=N\Nc1ccc(Cl)cn1)c1ccc2ccccc2n1 | 2.81 µM | 87.1 µM
CN1CCc2nc(N)nc(-c3nc(N)nc4c3CN(C)CC4)c2C1 | – | > 100 µM
COc1c2c(cc3c1OCO3)[C@]13C=C[C@H](OC)C[C@H]1N(C2)CC3O (stereo not given in full) | – | > 100 µM
COc1ccc(C[N+](C)(C)N)cc1OC | > 100 µM | > 100 µM
COc1c(C(=O)/C=C/c2ccccc2)c(O)cc2occc12 | 8.07 µM | 29.9 µM
CC(C)c1c(O)c(O)c2c(c1O)C(=O)C(O)=C1C(C)(C)CCC[C@@]12C | – | 6.34 µM
NS(=O)(=O)c1ccc(-c2ccc3c(NC(=O)C4CC4)n[nH]c3c2)cc1 | > 25 µM | > 25 µM
C=CCCCCC/C=C\[C@@H](O)C#CC#C/C=C/CO | > 100 µM | > 100 µM
N#Cc1cc(-c2cc3ccccc3o2)oc1N | 1.65 µM | 5.48 µM
Cc1cc(C(=O)Nc2ccc3cc(CN4CCOCC4)ccc3n2)c(C)n1-c1ccccc1 | 1.5 µM | 16.7 µM
O=S(=O)(c1ccc(NC(=S)NC23CC4CC(CC(C4)C2)C3)cc1)N1CCCCC1 | 3.06 µM | > 100 µM
CCCCCCCCCCCCCCCC(=O)OCC(C[As](=O)(O)O)OC(=O)CCCCCCCCCCCCCCC (stereo not given) | – | > 100 µM
O=C1/C(=C(/c2ccccc2)N2CCOCC2)Cc2ccccc21 | 0.186 µM | 2.08 µM
CC1=CC(=O)C=CC1=O | 15.1 µM and 15.3 µM | 28.4 µM and 29.8 µM
CCCC(CCC)NCC(O)c1cc(-c2ccc(C(F)(F)F)cc2)nc(C(F)(F)F)c1 (stereo not given) | 1.94 µM | 3.98 µM
Cc1cc(C)c(NC(=O)c2sc3nc4c(cc3c2N)C(=O)CCC4)c(C)c1 | 2.66 µM | > 100 µM
CN(C)CCNc1ccc(CO)c2oc3ccc(O)cc3c(=O)c12 | – | > 100 µM
Cc1ccc(NC(=O)c2cccc(C(C)(C)C#N)c2)cc1Nc1ccc2ncn(C)c(=O)c2c1 | 2.96 µM | > 100 µM
Cc1cc2ncnn2cc1Nc1ncc2c(n1)n(C1CCOCC1)c(=O)n2C | 2.88 µM | 52.2 µM
Cc1ccc(N=C/C=C(\Nc2ccc(C)cc2)c2ccc(Cl)cc2)cc1 | 8.52 µM | 40.4 µM
COc1ccc(C(=O)c2cc(C)c(OC)c(C)c2)c(OC)c1O | 0.185 µM | > 100 µM
COCC[C@H]1CCC/C=C/[C@@H]2C[C@H](O)C[C@H]2[C@H](O)/C=C/C(=O)O1 | 0.36 µM | –
COC(=O)Nc1nc2ccc(C3(c4ccc(F)cc4)OCCO3)cc2[nH]1 | 0.462 µM | > 100 µM
O=C(Nc1n[nH]c2cc(-c3ccccc3)ccc12)C1CC1 | 9.36 µM | > 25 µM

Tested on: MCF7 breast
Experiment: NCI tumour cell line growth inhibition, 48 h

Structure (SMILES) | GI50 | TGI
COc1cc(OC)c(C(=O)/C=C/c2cccc(C(F)(F)F)c2)c(OC)c1 | 1.12 µM | 7.38 µM
C/C(=N\Nc1ccc(Cl)cn1)c1ccc2ccccc2n1 | 2.85 µM | > 100 µM
CN1CCc2nc(N)nc(-c3nc(N)nc4c3CN(C)CC4)c2C1 | – | > 100 µM
COc1c2c(cc3c1OCO3)[C@]13C=C[C@H](OC)C[C@H]1N(C2)CC3O (stereo not given in full) | – | > 100 µM
COc1ccc(C[N+](C)(C)N)cc1OC | > 100 µM | > 100 µM
COc1c(C(=O)/C=C/c2ccccc2)c(O)cc2occc12 | 3.52 µM | 17.2 µM
CC(C)c1c(O)c(O)c2c(c1O)C(=O)C(O)=C1C(C)(C)CCC[C@@]12C | – | 12.7 µM
NS(=O)(=O)c1ccc(-c2ccc3c(NC(=O)C4CC4)n[nH]c3c2)cc1 | > 25 µM | > 25 µM
C=CCCCCC/C=C\[C@@H](O)C#CC#C/C=C/CO | 32.7 µM | > 100 µM
N#Cc1cc(-c2cc3ccccc3o2)oc1N | 2.66 µM | 15.3 µM
Cc1cc(C(=O)Nc2ccc3cc(CN4CCOCC4)ccc3n2)c(C)n1-c1ccccc1 | 1.87 µM | 10.8 µM
O=S(=O)(c1ccc(NC(=S)NC23CC4CC(CC(C4)C2)C3)cc1)N1CCCCC1 | 3.18 µM | > 100 µM
CCCCCCCCCCCCCCCC(=O)OCC(C[As](=O)(O)O)OC(=O)CCCCCCCCCCCCCCC (stereo not given) | – | > 100 µM
O=C1/C(=C(/c2ccccc2)N2CCOCC2)Cc2ccccc21 | 1.54 µM | 7.38 µM
CC1=CC(=O)C=CC1=O | 14.7 µM and 15.4 µM | 34.5 µM and 41.4 µM
CCCC(CCC)NCC(O)c1cc(-c2ccc(C(F)(F)F)cc2)nc(C(F)(F)F)c1 (stereo not given) | 1.43 µM | 2.87 µM
Cc1cc(C)c(NC(=O)c2sc3nc4c(cc3c2N)C(=O)CCC4)c(C)c1 | 2.09 µM | > 100 µM
CN(C)CCNc1ccc(CO)c2oc3ccc(O)cc3c(=O)c12 | – | 58.1 µM
Cc1ccc(NC(=O)c2cccc(C(C)(C)C#N)c2)cc1Nc1ccc2ncn(C)c(=O)c2c1 | 4.4 µM | > 100 µM
Cc1cc2ncnn2cc1Nc1ncc2c(n1)n(C1CCOCC1)c(=O)n2C | 3.21 µM | > 100 µM
Cc1ccc(N=C/C=C(\Nc2ccc(C)cc2)c2ccc(Cl)cc2)cc1 | 5.77 µM | 69.6 µM
COc1ccc(C(=O)c2cc(C)c(OC)c(C)c2)c(OC)c1O | 0.235 µM | > 100 µM
COCC[C@H]1CCC/C=C/[C@@H]2C[C@H](O)C[C@H]2[C@H](O)/C=C/C(=O)O1 | 0.0437 µM | 0.171 µM
COC(=O)Nc1nc2ccc(C3(c4ccc(F)cc4)OCCO3)cc2[nH]1 | 0.18 µM | > 100 µM
O=C(Nc1n[nH]c2cc(-c3ccccc3)ccc12)C1CC1 | 3.95 µM | > 25 µM

Tested on: SK-OV-3 ovarian
Experiment: NCI tumour cell line growth inhibition, 48 h

Structure (SMILES) | GI50 [µM] | TGI [µM]
COc1cc(OC)c(C(=O)/C=C/c2cccc(C(F)(F)F)c2)c(OC)c1 | 3.03 | 9.37
C/C(=N\Nc1ccc(Cl)cn1)c1ccc2ccccc2n1 | 3.73 | > 100
CN1CCc2nc(N)nc(-c3nc(N)nc4c3CN(C)CC4)c2C1 | – | > 100
COc1c2c(cc3c1OCO3)[C@]13C=C[C@H](OC)C[C@H]1N(C2)CC3O (stereo not given in full) | – | > 100
COc1ccc(C[N+](C)(C)N)cc1OC | > 100 | > 100
COc1c(C(=O)/C=C/c2ccccc2)c(O)cc2occc12 | 14.1 | 36.4
CC(C)c1c(O)c(O)c2c(c1O)C(=O)C(O)=C1C(C)(C)CCC[C@@]12C | – | 15.6
NS(=O)(=O)c1ccc(-c2ccc3c(NC(=O)C4CC4)n[nH]c3c2)cc1 | > 25 | > 25
C=CCCCCC/C=C\[C@@H](O)C#CC#C/C=C/CO | > 100 | > 100
N#Cc1cc(-c2cc3ccccc3o2)oc1N | 2.38 | 7.15
Cc1cc(C(=O)Nc2ccc3cc(CN4CCOCC4)ccc3n2)c(C)n1-c1ccccc1 | 4.54 | 40.2
O=S(=O)(c1ccc(NC(=S)NC23CC4CC(CC(C4)C2)C3)cc1)N1CCCCC1 | 2.98 | 9.26
